Measured values taken from publication PMC12136037, “Type II kinase inhibitors that target Parkinson’s disease–associated LRRK2” (Science Advances, 2025).
Where “and” joins values, the source holds several entries; their conditions need not be identical. Equal entries are not always repeated.

Assays:
Type in all cases: binding
LRRK2^KW = target: T1, LRRK2^KW (Homo sapiens, UniProt Q5S007); experiment: DSF thermal stabilization of LRRK2^KW; details: DSF, LRRK2^KW, 10 μM inhibitor
T1 construct: LRRK2 R1847 to E2527; His6-Z-tag (TEV cleavable) (N, cleaved yes); host or cells: Sf9 insect cells (baculovirus)
T1 sequence (Q5S007 1847-2527): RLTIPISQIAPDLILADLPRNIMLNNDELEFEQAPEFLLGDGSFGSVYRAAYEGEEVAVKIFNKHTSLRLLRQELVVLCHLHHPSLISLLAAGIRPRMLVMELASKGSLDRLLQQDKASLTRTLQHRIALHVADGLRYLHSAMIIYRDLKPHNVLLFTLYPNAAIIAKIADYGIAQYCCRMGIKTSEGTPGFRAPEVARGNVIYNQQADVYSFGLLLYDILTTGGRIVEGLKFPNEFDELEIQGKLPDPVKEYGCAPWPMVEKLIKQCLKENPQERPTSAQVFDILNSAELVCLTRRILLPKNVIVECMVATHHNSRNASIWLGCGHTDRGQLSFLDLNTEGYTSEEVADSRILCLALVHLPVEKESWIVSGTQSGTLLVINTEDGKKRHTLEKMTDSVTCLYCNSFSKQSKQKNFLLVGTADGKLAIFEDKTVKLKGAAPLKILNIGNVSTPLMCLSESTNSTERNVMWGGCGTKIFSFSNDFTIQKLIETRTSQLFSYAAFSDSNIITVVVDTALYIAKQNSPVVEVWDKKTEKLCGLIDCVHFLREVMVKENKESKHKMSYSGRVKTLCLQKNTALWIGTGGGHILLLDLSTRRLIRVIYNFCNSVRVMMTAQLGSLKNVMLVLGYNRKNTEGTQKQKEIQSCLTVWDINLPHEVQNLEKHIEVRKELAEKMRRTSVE
In short: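 DSF on 4 μM LRRK2^KW in 20 mM Hepes pH 7.4, 150 mM NaCl, 0.5 mM TCEP, 0.5% glycerol, 20 μM GDP, 2.5 mM MgCl2 with SYPRO Orange; inhibitor at 10 μM. Tm was taken as the minimum of the first derivative of fluorescence versus temperature, relative to control.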

[1] = target: T2, ~100 representative kinases (Homo sapiens, UniProt Q13188); experiment: DSF 100 kinase selectivity screen; details: Protein STK3; DSF; average of three replicates;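 note: compound tested at 20 µM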
T2 construct: Recombinant protein kinase domains with a concentration of 2 μM
T2 sequence (Q13188 1-491): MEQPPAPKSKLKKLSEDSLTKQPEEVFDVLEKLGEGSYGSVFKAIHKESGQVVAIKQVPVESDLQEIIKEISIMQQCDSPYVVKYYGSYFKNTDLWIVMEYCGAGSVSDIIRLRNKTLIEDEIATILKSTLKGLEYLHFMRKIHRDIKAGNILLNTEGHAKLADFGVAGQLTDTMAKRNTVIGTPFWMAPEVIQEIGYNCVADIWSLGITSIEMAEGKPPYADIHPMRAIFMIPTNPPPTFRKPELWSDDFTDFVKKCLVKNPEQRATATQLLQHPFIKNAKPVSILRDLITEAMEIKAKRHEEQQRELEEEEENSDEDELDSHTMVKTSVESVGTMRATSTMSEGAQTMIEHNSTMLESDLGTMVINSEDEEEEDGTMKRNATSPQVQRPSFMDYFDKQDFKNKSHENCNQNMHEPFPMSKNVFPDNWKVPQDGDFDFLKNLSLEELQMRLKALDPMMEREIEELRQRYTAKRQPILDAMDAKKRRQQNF
Procedure: (§1) Recombinant protein kinase domains with a concentration of 2 μM were mixed with a 20 μM compound solution in dimethyl sulfoxide (DMSO), 20 mM Hepes (pH 7.5), and 500 mM NaCl. SYPRO Orange (5000×, Invitrogen) was added as a fluorescence probe (1μl/ml). Subsequently, temperature-dependent protein unfolding profiles were measured using the QuantStudio 5 realtime PCR machine (Thermo Fisher Scientific, Waltham, MA, USA). […] The temperature was raised with a step rate of 3°C/min. […] Differences in melting temperature are given as ΔTm values in degrees Celsius. […]

[2] = target: T3, ~100 representative kinases (Homo sapiens, UniProt O15264); experiment: DSF 100 kinase selectivity screen; details: protein MAPK13; average of three replicates;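 note: compound tested at 20 µM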
T3 construct: Recombinant protein kinase domains with a concentration of 2 μM
T3 sequence (O15264 1-365): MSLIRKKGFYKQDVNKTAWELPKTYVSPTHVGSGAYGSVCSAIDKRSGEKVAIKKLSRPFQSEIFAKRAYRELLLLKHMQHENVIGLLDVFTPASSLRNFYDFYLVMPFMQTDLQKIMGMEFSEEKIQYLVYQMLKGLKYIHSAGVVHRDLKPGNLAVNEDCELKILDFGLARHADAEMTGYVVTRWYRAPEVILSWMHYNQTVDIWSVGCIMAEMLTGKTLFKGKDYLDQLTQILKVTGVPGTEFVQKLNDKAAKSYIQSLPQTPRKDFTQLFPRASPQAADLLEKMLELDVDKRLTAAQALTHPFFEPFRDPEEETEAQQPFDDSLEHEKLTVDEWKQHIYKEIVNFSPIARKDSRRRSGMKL
Procedure: as §1

[3] = target: T4, ~100 representative kinases (Homo sapiens, UniProt P28482); experiment: DSF 100 kinase selectivity screen; details: protein MAPK1; average of three replicates;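 note: compound tested at 20 µM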
T4 construct: Recombinant protein kinase domains with a concentration of 2 μM
T4 sequence (P28482 whole entry, the tested form may be a part): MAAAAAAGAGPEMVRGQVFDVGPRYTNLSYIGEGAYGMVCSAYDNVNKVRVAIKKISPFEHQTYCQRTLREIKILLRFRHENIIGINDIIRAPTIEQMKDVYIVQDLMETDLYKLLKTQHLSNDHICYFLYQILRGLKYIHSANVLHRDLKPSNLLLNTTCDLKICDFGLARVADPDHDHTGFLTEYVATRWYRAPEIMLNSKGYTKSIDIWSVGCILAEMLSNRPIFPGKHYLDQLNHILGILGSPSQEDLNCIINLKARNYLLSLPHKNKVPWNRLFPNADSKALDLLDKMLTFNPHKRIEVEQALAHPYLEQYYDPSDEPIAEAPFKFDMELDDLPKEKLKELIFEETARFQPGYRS
Procedure: as §1

[4] = target: T5, ~100 representative kinases (Homo sapiens, UniProt Q13627); experiment: DSF 100 kinase selectivity screen; details: Protein DYRK1A; average of three replicates;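 note: compound tested at 20 µM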
T5 construct: Recombinant protein kinase domains with a concentration of 2 μM
Procedure: as §1

[5] = target: T6, ~100 representative kinases (Homo sapiens, UniProt Q2M2I8); experiment: DSF 100 kinase selectivity screen; details: Protein AAK1; average of three replicates;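 note: compound tested at 20 µM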
T6 construct: Recombinant protein kinase domains with a concentration of 2 μM
T6 sequence (Q2M2I8 whole entry, the tested form may be a part): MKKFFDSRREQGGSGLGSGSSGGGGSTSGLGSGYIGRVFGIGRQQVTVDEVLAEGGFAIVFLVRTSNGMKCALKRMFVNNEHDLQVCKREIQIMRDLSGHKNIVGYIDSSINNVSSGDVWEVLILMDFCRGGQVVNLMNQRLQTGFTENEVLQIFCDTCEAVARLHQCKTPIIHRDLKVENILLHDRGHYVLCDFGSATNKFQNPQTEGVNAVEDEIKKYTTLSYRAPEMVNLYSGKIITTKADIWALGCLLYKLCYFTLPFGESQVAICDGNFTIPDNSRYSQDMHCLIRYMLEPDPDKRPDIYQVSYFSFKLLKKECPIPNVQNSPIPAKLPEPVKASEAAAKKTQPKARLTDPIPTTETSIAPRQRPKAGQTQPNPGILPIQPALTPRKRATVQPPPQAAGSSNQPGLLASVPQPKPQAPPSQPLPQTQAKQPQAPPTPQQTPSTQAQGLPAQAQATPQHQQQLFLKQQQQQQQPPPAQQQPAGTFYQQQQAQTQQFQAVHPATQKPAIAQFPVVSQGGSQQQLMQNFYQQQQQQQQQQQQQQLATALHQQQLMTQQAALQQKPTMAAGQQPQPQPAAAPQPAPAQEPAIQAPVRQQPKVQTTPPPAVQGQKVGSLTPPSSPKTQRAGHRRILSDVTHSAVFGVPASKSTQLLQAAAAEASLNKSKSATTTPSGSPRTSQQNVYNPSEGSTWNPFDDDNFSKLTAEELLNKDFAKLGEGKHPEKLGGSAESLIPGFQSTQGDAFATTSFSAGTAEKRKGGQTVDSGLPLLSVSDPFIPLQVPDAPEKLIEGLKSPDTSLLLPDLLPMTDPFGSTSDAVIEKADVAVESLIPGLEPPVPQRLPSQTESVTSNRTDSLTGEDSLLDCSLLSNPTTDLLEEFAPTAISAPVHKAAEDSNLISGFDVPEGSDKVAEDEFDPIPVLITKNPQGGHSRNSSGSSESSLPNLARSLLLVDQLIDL
Procedure: as §1

[6] = target: T7, ~100 representative kinases (Homo sapiens, UniProt P15735); experiment: DSF 100 kinase selectivity screen; details: protein PHKG2; average of three replicates;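 note: compound tested at 20 µM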
T7 construct: Recombinant protein kinase domains with a concentration of 2 μM
T7 sequence (P15735 1-406): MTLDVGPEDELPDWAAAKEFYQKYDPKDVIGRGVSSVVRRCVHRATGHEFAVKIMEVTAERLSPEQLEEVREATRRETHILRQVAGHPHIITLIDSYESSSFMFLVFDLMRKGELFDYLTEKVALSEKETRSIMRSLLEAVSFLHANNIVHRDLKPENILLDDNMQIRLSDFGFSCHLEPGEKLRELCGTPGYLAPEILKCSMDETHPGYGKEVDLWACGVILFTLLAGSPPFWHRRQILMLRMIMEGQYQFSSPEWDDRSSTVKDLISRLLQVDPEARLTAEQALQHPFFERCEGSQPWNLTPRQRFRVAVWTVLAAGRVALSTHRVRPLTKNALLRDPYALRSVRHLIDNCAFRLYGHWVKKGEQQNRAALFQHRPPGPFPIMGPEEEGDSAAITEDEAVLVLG
Procedure: as §1

[7] = target: T8, ~100 representative kinases (Homo sapiens, UniProt Q14680); experiment: DSF 100 kinase selectivity screen; details: protein MELK; average of three replicates
T8 construct: Recombinant protein kinase domains with a concentration of 2 μM
T8 sequence (Q14680 whole entry, the tested form may be a part): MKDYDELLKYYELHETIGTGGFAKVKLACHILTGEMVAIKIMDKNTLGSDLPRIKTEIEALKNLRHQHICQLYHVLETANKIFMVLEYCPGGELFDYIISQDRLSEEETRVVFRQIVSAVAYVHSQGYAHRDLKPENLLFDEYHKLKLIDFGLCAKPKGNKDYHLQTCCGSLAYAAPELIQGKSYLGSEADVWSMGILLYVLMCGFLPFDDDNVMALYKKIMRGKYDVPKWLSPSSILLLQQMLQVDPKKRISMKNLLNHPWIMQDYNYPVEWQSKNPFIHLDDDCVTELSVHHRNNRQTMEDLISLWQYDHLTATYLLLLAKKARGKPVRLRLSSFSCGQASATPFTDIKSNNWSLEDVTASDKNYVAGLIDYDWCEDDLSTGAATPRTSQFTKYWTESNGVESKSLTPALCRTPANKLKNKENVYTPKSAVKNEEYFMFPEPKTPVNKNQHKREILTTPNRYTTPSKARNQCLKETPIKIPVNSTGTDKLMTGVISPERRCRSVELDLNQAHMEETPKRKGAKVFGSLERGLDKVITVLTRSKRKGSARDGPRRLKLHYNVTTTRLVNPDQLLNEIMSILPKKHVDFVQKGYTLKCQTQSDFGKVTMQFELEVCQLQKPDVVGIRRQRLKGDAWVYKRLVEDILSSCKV
Procedure: as §1

Cc1ccc(C(=O)Nc2ccc(CN3CCN(C)CC3)c(C(F)(F)F)c2)cc1C#Cc1c[nH]c2ncnc(N3CCOCC3)c12 [Compound 1]
∆Tm (K) (LRRK2^KW): 9.5 K | dTm [1]: 10.52 K | dTm [2]: 4.74 K | dTm [3]: 0.68 K | dTm [4]: -1.40 K | dTm [5]: 3.06 K | dTm [6]: -0.17 K | dTm [7]: 8.08 K

O=C(Nc1ccc(F)cc1)C1(C(=O)Nc2cccc(-c3c[nH]c4ncnc(N5CCOCC5)c34)c2)CC1 [Compound 2]
dTm [1]: 7.33 K | dTm [2]: 9.94 K | dTm [3]: -0.20 K | dTm [4]: 4.73 K | dTm [5]: 3.27 K | dTm [6]: 2.27 K | dTm [7]: 14.87 K

O=C(Nc1cccc(-c2c[nH]c3ncnc(N4CCOCC4)c23)c1)c1cccn(-c2ccc(F)cc2)c1=O [Compound 4]
∆Tm (K) (LRRK2^KW): 13.0 K | dTm [1]: 9.51 K | dTm [2]: 12.71 K | dTm [3]: -0.49 K | dTm [4]: 2.17 K | dTm [5]: 1.95 K | dTm [6]: 0.20 K | dTm [7]: 12.90 K

Cc1cc(NC(=O)C2(C(=O)Nc3ccc(F)cc3)CC2)cc(-c2c[nH]c3ncnc(N4CCOCC4)c23)c1 [Compound 6]
∆Tm (K) (LRRK2^KW): 10.0 K | dTm [1]: 6.70 K | dTm [2]: 7.75 K | dTm [3]: 0.01 K | dTm [4]: -0.88 K | dTm [5]: 0.52 K | dTm [6]: 0.93 K | dTm [7]: 11.24 K

O=C(Nc1cccc(-c2c[nH]c3ncnc(N4CCOCC4)c23)c1)C1(C(=O)Nc2cccc3c2CCC3)CC1 [Compound 11]
∆Tm (K) (LRRK2^KW): 9.2 K | dTm [1]: 4.65 K | dTm [2]: 6.18 K | dTm [3]: 1.31 K | dTm [4]: 0.32 K | dTm [5]: -0.63 K | dTm [6]: 0.68 K | dTm [7]: 10.76 K

O=C(Nc1ccccc1)C1(C(=O)Nc2cccc(-c3c[nH]c4ncnc(N5CCOCC5)c34)c2)CC1 [Compound 12]
∆Tm (K) (LRRK2^KW): 9.3 K | dTm [1]: 6.83 K | dTm [2]: 7.89 K | dTm [3]: 0.22 K | dTm [4]: 4.34 K | dTm [5]: 3.79 K | dTm [6]: 1.25 K | dTm [7]: 12.58 K

O=C(Nc1ccc(Cl)cc1)C1(C(=O)Nc2cccc(-c3c[nH]c4ncnc(N5CCOCC5)c34)c2)CC1 [Compound 13]
∆Tm (K) (LRRK2^KW): 9.5 K | dTm [1]: 10.20 K | dTm [2]: 11.74 K | dTm [3]: 0.06 K | dTm [4]: 8.77 K | dTm [5]: 3.55 K | dTm [6]: 3.23 K | dTm [7]: 15.01 K

Cc1ccc(NC(=O)C2(C(=O)Nc3cccc(-c4c[nH]c5ncnc(N6CCOCC6)c45)c3)CC2)cc1 [Compound 14]
∆Tm (K) (LRRK2^KW): 9.1 K | dTm [1]: 7.94 K | dTm [2]: 9.07 K | dTm [3]: -0.09 K | dTm [4]: 3.30 K | dTm [5]: 2.28 K | dTm [6]: 0.65 K | dTm [7]: 11.82 K

CCc1ccc(NC(=O)C2(C(=O)Nc3cccc(-c4c[nH]c5ncnc(N6CCOCC6)c45)c3)CC2)cc1 [Compound 15]
∆Tm (K) (LRRK2^KW): 9.1 K | dTm [1]: 8.42 K | dTm [2]: 8.81 K | dTm [3]: -0.47 K | dTm [4]: 3.55 K | dTm [5]: 2.03 K | dTm [6]: 0.76 K | dTm [7]: 6.77 K

COc1ccc(NC(=O)C2(C(=O)Nc3cccc(-c4c[nH]c5ncnc(N6CCOCC6)c45)c3)CC2)cc1 [Compound 16]
∆Tm (K) (LRRK2^KW): 4.3 K | dTm [1]: 5.34 K | dTm [2]: 5.41 K | dTm [3]: -0.34 K | dTm [4]: 0.49 K | dTm [5]: 1.75 K | dTm [6]: -0.08 K | dTm [7]: 8.41 K

COc1cc(S(C)(=O)=O)ccc1Nc1nc(N(C)C)c2c(Cl)c[nH]c2n1 [Compound 37]
dTm [1]: -0.72 K | dTm [2]: 0.37 K | dTm [3]: 0.14 K | dTm [4]: 2.45 K | dTm [5]: 0.85 K | dTm [6]: 3.65 K | dTm [7]: 0.45 K

CCNc1nc(Nc2cc(F)c(C(=O)N3CCOCC3)cc2OC)ncc1C(F)(F)F [GNE-7915]
dTm [1]: 0.97 K | dTm [2]: 0.51 K | dTm [3]: 0.38 K | dTm [4]: -0.0472 K | dTm [5]: 4.61 K | dTm [6]: 1.11 K | dTm [7]: 2.44 K

C[C@@H]1CN(c2cc(-c3n[nH]c4ccc(OC5(C)CC5)cc34)ncn2)C[C@H](C)O1 [MLi2]
dTm [1]: 0.09 K | dTm [2]: 0.32 K | dTm [3]: 0.49 K | dTm [4]: 0.53 K | dTm [5]: 1.29 K | dTm [6]: 4.00 K | dTm [7]: 0.47 K

Cn1cc(-c2c[nH]c3ncnc(N4CCOCC4)c23)cc1C#N [PFE-360]
dTm [1]: 6.99 K | dTm [2]: 0.70 K | dTm [3]: 0.55 K | dTm [4]: 3.25 K | dTm [5]: 8.34 K | dTm [6]: 1.53 K | dTm [7]: 5.72 K

Cc1ccc(C(=O)Nc2ccc(CN3CCN(C)CC3)c(C(F)(F)F)c2)cc1C#Cc1cnc2cccnn12 [Ponatinib, reference compound]
∆Tm (K) (LRRK2^KW): 13.0 K

CNC(=O)c1cc(Oc2ccc(NC(=O)Nc3cc(C(C)(C)C)nn3-c3ccc4ncccc4c3)c(F)c2)ccn1 [Rebastinib, reference compound]
∆Tm (K) (LRRK2^KW): 18.5 K and 18.5 ± 0.7 K | dTm [1]: 9.02 K | dTm [2]: 13.29 K | dTm [3]: 0.54 K | dTm [4]: 0.55 K | dTm [5]: 0.20 K | dTm [7]: 0.63 K

CN[C@@H]1C[C@H]2O[C@@](C)([C@@H]1OC)n1c3ccccc3c3c4c(c5c6ccccc6n2c5c31)C(=O)NC4 [Staurosporine]
dTm [1]: 16.47 K | dTm [2]: 8.03 K | dTm [5]: 12.42 K | dTm [7]: 14.15 K
